As a reminder, the % inhibition is the relative decrease from the control value, in per cent. Read a high % inhibition as a strong effect.

In this assay the test system is S. hominis B10 C-S β lyase. In words: Transformation of Cys-3M3SH to 3M3SH by purified S. hominis B10 C-S β lyase. In kind it is biochemical, Staphylococcus hominis. The following applies: for % inhibition: 2 mM Cys-3M3SH, 35° C. for 24 hours, relative to control without compound; for susceptibility of S. hominis C-S β-lyase to inhibition by classical inhibitors: qualitative statement, no concentration given. From the text: The compounds identified by present invention represent a new class of deodorant actives that can be screened by the method disclosed herein. The method uses an odour-generating C-S β-lyase, in particular S. hominis B10 C-S β-lyase. In accordance with the procedure detailed in Example 1, the medium of the screening method comprises a 20 millimolar concentration of the compound to be screened. The medium further comprises S. hominis C-S β-lyase enzyme and 2 millimolar Cys-3M3SH. Following an incubation at 35° C. for a period of 24 hours, the reduction in 3M3SH released by S. hominis C-S β-lyase from Cys-3M3SH is measured. Herein, the inhibition of 3M3SH level is relative to a control without any compound being screened. In preferred embodiments, following the procedure detailed in Example 1, the medium comprises a 10 millimolar concentration of compound to be screened. In further preferred embodiments, the concentration of the compound to be screened can be 5 millimolar, preferably 2 millimolar, more preferably 1 millimolar, most preferably 0.5 millimolar.
The deodorant actives affecting S. hominis C-S β lyase are identified by using the following procedure. The Cys-3M3SH used in the procedure may be obtained using a method described in Chem. Biodivers., 2, 2005, 705-716. The purified S. hominis B10 C-S β lyase was prepared by cloning the gene encoding this enzyme into Escherichia coli using methodology known in the art. Recombinant S. hominis B10 C-S β-lyase was then expressed in E. coli and purified by immobilised metal ion affinity chromatography. M9 salts are mixtures of 6 g/L Na2HPO4, 3 g/L KH2PO4, 0.5 g/L NaCl, adjusted to pH 7.0 with NaOH.
Glass reaction tubes were set up, each containing 2 mM Cys-3M3SH (dissolved in M9 salts), 50 μM pyridoxal phosphate, purified S. hominis B10 C-S β lyase to a final concentration of 10 μg/ml, and M9 salts (or, where appropriate, a test material dissolved in M9 salts at, for example, 20 mM) to adjust the volume to 500 μl. Enzyme only (C-S beta-lyase) and substrate only (Cys-3M3SH) reactions were also included in each experiment. The reactions were incubated with shaking at 35° C. for 24 hours. To measure released 3M3SH, each reaction vial was first centrifuged at 13,000 rpm for 2 minutes. A volume of 0.095 ml labelling solution, consisting of 0.080 ml dH2O, 0.010 ml Tris (pH 8.0) and 0.005 ml 5,5′-dithiobis-(2-nitrobenzoic acid) (DTNB) stock solution (50 mM sodium acetate, 2 mM DTNB, dissolved in dH2O) was added to each well of a micro-titre plate. 0.005 ml of each reaction supernatant was added to the wells of the micro-titre plate, which was then incubated at room temperature for 5 minutes. Absorbance (A412) values, which correlate with the concentration of 3M3SH present, were recorded using a spectrophotometer. […] In these cases, a HPLC analysis was carried out according to the methodology described in J. Pharm. Biomed. Anal. 2008; 48:1375-80 and FEMS Microbiol. Lett., 263(16), 2015, fnv111.

Where [1] appears, read: material concentration = 2 millimolar.
Setting [2] is: material concentration = 20 millimolar.

Consider “1,8-Dioxa-4-azaspiro[4.5]decane-3-carboxylic acid(N-CBz protected) [EX17]”, for which, under setting [1], the “% inhibition” value was 54.1%.
In the case of “1-oxa-4-azaspiro[4.5]decane-3-carboxylic acid(N-CBz protected) [EX16]”, the “% inhibition” value under setting [1] is on record as 30.3%.
“2-(2-furyl)1,3-thiazolide-4-carboxylic acid [EX4]”: the “% inhibition” value was determined as 20.8% under setting [1] and 80.4% under setting [2].
For the compound `N[C@H](COCc1ccccc1)C(=O)O` [C1, O-benzyl-D-serine, reference compound], the “% inhibition” value is on record as 0% under setting [1]; “does not present significant reduction of malodour” (material concentration = 2 millimolar, listed as Cl); 8.2% under setting [2].
Regarding `COc1ccc(C2NC(C(=O)O)CS2)cc1O` (stereo not shown) [EX1, 2-(3-hydroxy-4-methoxy-phenyl)-thiazolidine-4-carboxylic acid], the “% inhibition” value is reported as 34.9% under setting [1] and 100% under setting [2].
`COc1cc(C2NC(C(=O)O)CS2)ccc1O` (stereo not shown) [EX2, 2-(4-hydroxy-3-methoxyphenyl)-1,3-thiazolidine-4-carboxylic acid]: the “% inhibition” value under setting [1] is given as 32.9% and the “% inhibition” value under setting [2] is reported as 100%.
In the same order, the values of `O=C(O)C1CSC2(CCC3(CC2)OCCO3)N1` (stereo not shown) [EX3, 1,4-dioxa-9-thia-12-azadispirol[4.2.4.2]tetradecane-11-carboxylic acid] are 32.3% and 80.6%.
As for `CCC(CC)C1NC(C(=O)O)CS1` (stereo not shown) [EX5, 2-(1-ethylpropyl)-4-thiazolidine-4-carboxylic acid], the “% inhibition” value runs as follows: under setting [1], 46%; under setting [2], 94.1%.
As to `O=C(O)C1CSC2(CCCCC2)N1` (stereo not shown) [EX6, 1-thia-4-azaspiro[4.5]decane-3-carboxylic acid], the “% inhibition” value under setting [1] stood at 90.9% and the “% inhibition” value under setting [2] stood at 100%.
On to `O=C(O)C1CSC2(CCN(Cc3ccccc3)CC2)N1` (stereo not shown) [EX7, 8-benzyl-1-thia-4,8-diazaspiro[4.5]decane-3-carboxylic acid], for which the “% inhibition” value was 11.9% under setting [1] and 87.8% under setting [2].
`O=C(O)C1CSC(c2ccccc2)N1` (stereo not shown) [EX8, 2-phenylthiazolidine-4-carboxylic acid]: the “% inhibition” value runs as follows: under setting [1], 12.3%; under setting [2], 95.9%.
Take `C=CCOc1ccc(C2NC(C(=O)O)CS2)cc1` (stereo not shown) [EX9, 2-(4-(allyloxy)phenyl)-1,3-thiazolidine-4-carboxylic acid]: the “% inhibition” value under setting [1] came out at 39.7% and the “% inhibition” value under setting [2] is 100%.
With `COc1ccc(C2NC(C(=O)O)CS2)cc1` (stereo not shown) [EX10, 2-(4-methoxyphenyl)-1,3-thiazolidine-4-carboxylic acid], the “% inhibition” value is reported as 24.5% under setting [1] and 88.2% under setting [2].
For `CCCCCCC1NC(C(=O)O)CS1` (stereo not shown) [EX11, 2-hexyl-1,3-thiazolane-4-carboxylic acid], the “% inhibition” value is 87.5% under setting [1] and 100% under setting [2].
With `O=C(O)C1CSC(c2ccccc2O)N1` (stereo not shown) [EX12, 2-(2-hydroxy-pheny)-thiazolidine-4-carboxylic acid], the “% inhibition” value under setting [1] is listed as 46.5% and the “% inhibition” value under setting [2] is given as 100%.
For the compound `N[C@H]1CONC1=O` [L-cycloserine, reference compound], the “susceptibility of S. hominis C-S β-lyase to inhibition by classical inhibitors” value is reported as “much less susceptible to inhibition”.
On the same count and under the same terms, the value for `NOCC(=O)O` [aminooxyacetic acid, reference compound] was “much less susceptible to inhibition”.

The values are drawn from patent US12246081B2, “Deodorant compositions” (Conopco, Inc., priority 2017, dated 2025).
